Measurements published in ChEMBL document CHEMBL1146947, “Synthesis and ocular effects of imidazole nitrolic acid and amidoxime esters” (Bioorg Med Chem Lett, 2006).
Activity calls are given as the source filed them. The rule behind the calls is not given here.

How the values were obtained:
[1] = tested on: Oryctolagus cuniculus; assay: Lowering of intraocular pressure in rabbit eye at 10 mM administered topically; format: functional, organism-based
[2] = target: T1, Soluble guanylate cyclase (Homo sapiens) (UniProt Q02153+O75343+P33402+Q02108); assay: Effect on cGMP production in porcine iris-ciliary body at 100 uM; format: functional; settings: Sus scrofa, target entry is the homologue from another species
[3] = target: T1, Soluble guanylate cyclase (Homo sapiens); assay: Effect on cGMP production in porcine iris-ciliary body at 10 uM; format: functional; settings: Sus scrofa, target entry is the homologue from another species
[4] = species on record: Oryctolagus cuniculus; assay: Lowering of intraocular pressure in rabbit eye intravitreally injected with 10 mM; format: functional, organism-based

Compound | Activity [2] [pmol/mg] | Activity [3] [pmol/mg] | Activity [1] | Activity [4]
CCCC(=O)O/N=C(/c1c[nH]cn1)[N+](=O)[O-] | 0.38 | 0.5 | inactive | 
CC(C)(C)C(=O)O/N=C(/c1c[nH]cn1)[N+](=O)[O-] | 0.73 | 0.36 | inactive | 
CC(=O)O/N=C(/c1c[nH]cn1)[N+](=O)[O-] | 0.78 | 0.45 | inactive | 
CC(=O)ONC(=N)c1cncn1C |  |  | inactive | inactive

The next lines start with results.

Activity [2] [pmol/mg] | Activity [3] [pmol/mg] | Compound | Activity [1] | Activity [4]
0.24 | 0.63 | Cn1cncc1C(=N)NOC(=O)C(C)(C)C | inactive | 
0.24 | 0.23 | CCCC(=O)ONC(=N)c1cncn1C | inactive | 
